# Results published in ChEMBL document CHEMBL1135394, “Improvement in the selectivity and metabolic stability of the serotonin 5-HT(1A) ligand, S 15535: a series of cis- and trans-2-(arylcycloalkylamine) 1-indanols” (J Med Chem, 2002).
# Key:
# [1] = Selectivity ratio towards Alpha-1 adrenergic receptor to human 5-hydroxytryptamine 1A receptor
# [2] = target: T1, 5-hydroxytryptamine receptor 1A (Homo sapiens, UniProt P08908); assay: Binding affinity at human 5-hydroxytryptamine 1A receptor by inhibition of [3H]8-OH-DPAT binding in Chinese hamster ovary cell line; format: cell-based
# T1 sequence (P08908 whole entry): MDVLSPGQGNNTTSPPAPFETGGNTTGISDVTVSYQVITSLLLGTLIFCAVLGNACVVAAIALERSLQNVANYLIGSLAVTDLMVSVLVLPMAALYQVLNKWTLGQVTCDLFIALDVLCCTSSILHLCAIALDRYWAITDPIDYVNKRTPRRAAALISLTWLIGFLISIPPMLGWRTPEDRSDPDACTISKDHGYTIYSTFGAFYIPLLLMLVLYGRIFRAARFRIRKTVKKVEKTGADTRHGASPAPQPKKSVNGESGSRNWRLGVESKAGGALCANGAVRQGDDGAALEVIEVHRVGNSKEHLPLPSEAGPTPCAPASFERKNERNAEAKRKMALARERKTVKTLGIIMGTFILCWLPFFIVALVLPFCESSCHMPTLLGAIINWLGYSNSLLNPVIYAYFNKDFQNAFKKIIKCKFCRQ
# [3] = In vitro oral metabolic bioavailability after incubation with hepatic microsomes; format: ADME, Liver; settings: read-out: MF
# [4] = target: T2, Adrenergic receptor alpha-1 (Rattus norvegicus, UniProt P15823+P23944+P43140); assay: Binding affinity at Alpha-1 adrenergic receptor by inhibition of [3H]-prazosin binding to rat cortex
# T2 sequence (P15823 whole entry): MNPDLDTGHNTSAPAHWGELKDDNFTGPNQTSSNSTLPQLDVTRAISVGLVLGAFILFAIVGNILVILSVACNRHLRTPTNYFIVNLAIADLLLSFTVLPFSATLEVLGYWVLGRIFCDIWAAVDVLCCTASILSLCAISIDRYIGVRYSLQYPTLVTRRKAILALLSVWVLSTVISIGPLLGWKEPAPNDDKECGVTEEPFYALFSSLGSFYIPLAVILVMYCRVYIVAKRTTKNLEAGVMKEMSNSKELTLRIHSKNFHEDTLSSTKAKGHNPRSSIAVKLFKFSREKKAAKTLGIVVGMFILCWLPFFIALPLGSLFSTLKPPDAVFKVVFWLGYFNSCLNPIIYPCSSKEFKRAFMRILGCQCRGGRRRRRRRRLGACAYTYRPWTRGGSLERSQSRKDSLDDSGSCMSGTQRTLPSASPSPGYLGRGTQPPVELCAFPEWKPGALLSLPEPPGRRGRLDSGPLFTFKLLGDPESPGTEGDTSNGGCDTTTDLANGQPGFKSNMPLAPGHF
# T2 sequence (P23944 whole entry): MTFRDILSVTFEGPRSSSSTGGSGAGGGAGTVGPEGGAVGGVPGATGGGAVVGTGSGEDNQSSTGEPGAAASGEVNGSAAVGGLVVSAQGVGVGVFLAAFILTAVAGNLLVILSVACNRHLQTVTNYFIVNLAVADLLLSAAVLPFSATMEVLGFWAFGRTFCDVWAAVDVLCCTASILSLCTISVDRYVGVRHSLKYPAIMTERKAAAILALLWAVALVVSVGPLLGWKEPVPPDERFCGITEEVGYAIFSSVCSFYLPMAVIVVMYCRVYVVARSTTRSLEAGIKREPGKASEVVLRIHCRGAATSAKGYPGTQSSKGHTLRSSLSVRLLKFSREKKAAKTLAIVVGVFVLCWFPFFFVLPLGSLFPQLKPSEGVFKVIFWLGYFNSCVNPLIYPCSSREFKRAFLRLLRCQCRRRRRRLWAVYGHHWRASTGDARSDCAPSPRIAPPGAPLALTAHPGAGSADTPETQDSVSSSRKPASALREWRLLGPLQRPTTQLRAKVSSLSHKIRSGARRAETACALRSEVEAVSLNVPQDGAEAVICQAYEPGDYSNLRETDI
# T2 sequence (P43140 whole entry): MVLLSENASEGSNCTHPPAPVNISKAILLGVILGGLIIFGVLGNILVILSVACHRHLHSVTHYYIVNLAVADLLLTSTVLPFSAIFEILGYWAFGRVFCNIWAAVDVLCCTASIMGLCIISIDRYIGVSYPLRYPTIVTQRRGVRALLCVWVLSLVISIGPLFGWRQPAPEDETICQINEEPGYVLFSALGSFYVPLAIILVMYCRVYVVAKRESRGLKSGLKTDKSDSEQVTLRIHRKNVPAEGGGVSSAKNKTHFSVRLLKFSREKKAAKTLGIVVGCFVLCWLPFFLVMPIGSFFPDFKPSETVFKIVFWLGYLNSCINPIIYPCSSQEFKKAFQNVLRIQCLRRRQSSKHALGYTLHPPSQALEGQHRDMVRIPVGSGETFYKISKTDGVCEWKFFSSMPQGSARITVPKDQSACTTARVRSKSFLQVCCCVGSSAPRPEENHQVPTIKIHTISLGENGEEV
# [5] = target: T3, 5-hydroxytryptamine receptor 1A (Rattus norvegicus) (UniProt P19327); assay: Antagonistic activity at postsynaptic 5-hydroxytryptamine 1A receptor was measured by its ability to inhibit hypothermia elicited by s.c. administration of 8-OH-DPAT in rat;ranges from (0.72-2.87); format: functional, organism-based
# T3 sequence (whole entry): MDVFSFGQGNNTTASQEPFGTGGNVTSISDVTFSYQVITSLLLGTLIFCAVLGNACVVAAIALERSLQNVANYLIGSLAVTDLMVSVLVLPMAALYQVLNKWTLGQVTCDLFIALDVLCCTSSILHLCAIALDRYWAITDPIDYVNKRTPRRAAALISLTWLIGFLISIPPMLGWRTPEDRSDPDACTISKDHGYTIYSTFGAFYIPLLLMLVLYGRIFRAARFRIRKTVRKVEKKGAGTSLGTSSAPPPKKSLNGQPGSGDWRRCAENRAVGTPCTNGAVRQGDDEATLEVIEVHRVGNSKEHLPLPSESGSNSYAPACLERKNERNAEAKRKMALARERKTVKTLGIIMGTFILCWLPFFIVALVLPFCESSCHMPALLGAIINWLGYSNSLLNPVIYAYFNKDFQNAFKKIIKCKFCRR
# [6] = target: T3, 5-hydroxytryptamine receptor 1A (Rattus norvegicus); assay: Antagonistic activity at postsynaptic 5-hydroxytryptamine 1A receptor was measured by its ability to inhibit hypothermia elicited by s.c. administration of 8-OH-DPAT in rat;ranges from (0.37-4.27); format: functional, organism-based
# [7] = target: T3, 5-hydroxytryptamine receptor 1A (Rattus norvegicus); assay: Antagonistic activity at postsynaptic 5-hydroxytryptamine 1A receptor was measured by its ability to inhibit hypothermia elicited by s.c. administration of 8-OH-DPAT in rat;ranges from (0.10-6.20); format: functional, organism-based
# [8] = target: T3, 5-hydroxytryptamine receptor 1A (Rattus norvegicus); assay: Antagonistic activity at postsynaptic 5-hydroxytryptamine 1A receptor was measured by its ability to inhibit hypothermia elicited by s.c. administration of 8-OH-DPAT in rat;ranges from (0.80-5.80); format: functional, organism-based
# [9] = target: T3, 5-hydroxytryptamine receptor 1A (Rattus norvegicus); assay: Antagonistic activity at postsynaptic 5-hydroxytryptamine 1A receptor was measured by its ability to inhibit hypothermia elicited by s.c. administration of 8-OH-DPAT in rat;ranges from (0.60-1.60); format: functional, organism-based
# [10] = target: T3, 5-hydroxytryptamine receptor 1A (Rattus norvegicus); assay: Antagonistic activity at postsynaptic 5-hydroxytryptamine 1A receptor was measured by its ability to inhibit hypothermia elicited by s.c. administration of 8-OH-DPAT in rat;ranges from (1.50-16.5); format: functional, organism-based
# [11] = target: T3, 5-hydroxytryptamine receptor 1A (Rattus norvegicus); assay: Antagonistic activity at postsynaptic 5-hydroxytryptamine 1A receptor was measured by its ability to inhibit hypothermia elicited by s.c. administration of 8-OH-DPAT in rat;ranges from (0.40-2.70); format: functional, organism-based
Structure (SMILES),Ratio [1],Ki [2] [nM],Fh [3] [%],Log Ki [4],also measured
c1ccc2c(c1)CC(N1CCN(c3cccc4c3OCCO4)CC1)C2,158,0.794,4,-6.9,ID50 [5]: 1.44 mg/kg
COc1ccc2c(c1)C[C@@H](N1CCN(c3cccc4c3OCCO4)CC1)[C@@H]2O (racemic),–,1.26,80,-6.55,–
O[C@@H]1c2ccc(F)cc2C[C@H]1N1CCN(c2cccc3c2OCCO3)CC1 (racemic),–,1.26,65,-6.15,–
O[C@@H]1c2ccc(F)cc2C[C@H]1N1CCC(c2cc(F)cc3c2OCCC3)CC1 (relative stereo),11,4.9,–,-7.26,–
O[C@@H]1c2ccc(F)cc2C[C@H]1N1CCN(c2cc(Cl)cc3c2OCCO3)CC1 (relative stereo),645,1.32,–,-6.07,–
COc1ccc2c(c1)[C@@H](O)[C@H](N1CCN(c3cccc4c3OCCO4)CC1)C2 (relative stereo),603,0.447,62,-6.57,ID50 [6]: 1.25 mg/kg
O=[N+]([O-])c1ccc2c(c1)[C@@H](O)[C@H](N1CCN(c3cccc4c3OCCO4)CC1)C2 (relative stereo),1260,0.741,71,-6.03,ID50 [7]: 0.9 mg/kg
O[C@@H]1c2ccc(F)cc2C[C@H]1N1CCN(c2cccc3c2OCCC3)CC1 (relative stereo),166,1.29,–,-6.67,–
COc1ccc2c(c1)C[C@@H](N1CCN(c3cccc4c3OCCO4)CC1)[C@H]2O (relative stereo),–,23.4,–,–,–
O[C@@H]1c2ccc(F)cc2C[C@H]1N1CCC(O)(c2cccc3c2OCCO3)CC1 (relative stereo),< 1,> 1000,–,-6.31,–
O[C@H]1c2ccc(F)cc2C[C@H]1N1CCN(c2cccc3c2OCCC3)CC1 (relative stereo),–,316,–,–,–
Cc1ccc2c(c1)[C@@H](O)[C@H](N1CCC(c3cccc4c3OCCO4)CC1)C2 (relative stereo),66,0.55,–,-7.44,–
OCC1COc2c(cc(Cl)cc2N2CCN([C@@H]3Cc4cc(F)ccc4[C@H]3O)CC2)O1 (relative stereo),64,10.5,–,-6.17,–
O[C@@H]1c2ccc(F)cc2C[C@H]1N1CCC(c2cccc3c2OCCC3)CC1 (relative stereo),76,0.302,–,-7.64,–
O[C@@H]1c2cc(F)ccc2C[C@H]1N1CCC(c2cccc3c2OCCO3)CC1 (relative stereo),102,0.776,8,-7.1,ID50 [8]: 2.1 mg/kg
COc1ccc2c(c1)[C@H](O)[C@H](N1CCN(c3cccc4c3OCCO4)CC1)C2 (relative stereo),–,17.4,–,–,–

Structure (SMILES),Ratio [1],Ki [2] [nM],Fh [3] [%],Log Ki [4],also measured
O[C@@H]1c2ccc(F)cc2C[C@H]1N1CCC(c2cccc3c2OCC3)CC1 (relative stereo),30,1.51,–,-7.34,–
O[C@@H]1c2cc3c(cc2C[C@H]1N1CCC(c2cccc4c2OCCO4)CC1)OCO3 (relative stereo),56,0.525,8,-7.53,ID50 [9]: 1 mg/kg
O[C@@H]1c2cc(F)c(F)cc2C[C@H]1N1CCC(c2cccc3c2OCCO3)CC1 (relative stereo),38,2.19,5,-7.08,ID50 [10]: 5 mg/kg
O[C@@H]1c2ccc(F)cc2C[C@H]1N1CC=C(c2cccc3c2SCCC3)CC1 (relative stereo),–,11.7,–,–,–
O[C@@H]1c2cc(F)ccc2C[C@H]1N1CCN(c2cccc3c2OCCO3)CC1 (relative stereo),561,1.32,46,-6.13,ID50 [11]: 1 mg/kg
O[C@H]1c2ccc(F)cc2C[C@H]1N1CCC(c2cccc3c2OCCO3)CC1 (relative stereo),–,26.9,–,–,–
O[C@H]1c2ccc(F)cc2C[C@H]1N1CCC(O)(c2cccc3c2OCCO3)CC1 (relative stereo),–,> 1000,–,–,–
COc1cc2c(cc1OC)[C@@H](O)[C@H](N1CCC(c3cccc4c3OCCO4)CC1)C2 (relative stereo),1.5,79.4,–,-6.9,–
O[C@H]1c2ccccc2C[C@H]1N1CC=C(c2cccc3c2OCCO3)CC1 (relative stereo),–,22.9,–,–,–
O[C@@H]1c2ccc(F)cc2C[C@H]1N1CCC(c2cccc3c2OCCO3)CC1 (relative stereo),148,0.437,7,-7.19,–
Cc1ccc2c(c1)C[C@@H](N1CCC(c3cccc4c3OCCO4)CC1)[C@@H]2O (relative stereo),14.5,1.17,–,-7.77,–
COc1ccc2c(c1)C[C@@H](N1CCN(c3cccc4c3OCCO4)CC1)[C@@H]2O (stereo in doubt; (+)),–,6.61,–,–,–
O[C@@H]1c2ccc(F)cc2C[C@H]1N1CCN(c2cccc3c2OCCO3)CC1 (stereo in doubt; (+)),–,0.631,–,–,–
COc1ccc2c(c1)C[C@@H](N1CCN(c3cccc4c3OCCO4)CC1)[C@@H]2O (stereo in doubt; (-)),–,1.02,–,–,–
O[C@@H]1c2ccc(F)cc2C[C@H]1N1CCN(c2cccc3c2OCCO3)CC1 (stereo in doubt; (-)),–,2.04,–,–,–
